From ChEMBL document CHEMBL1667731, “N-hydroxypyridones, phenylhydrazones, and a quinazolinone from Isaria farinosa” (J Nat Prod, 2011) come the findings set out here.

In one experiment the test system is Streptococcus pneumoniae. The experiment in a line: Antibacterial activity against Streptococcus pneumoniae CGMCC 1.1692 after 24 hrs. It is filed as functional, organism-based. The settings on record: CGMCC 1.1692, 24 h.
The test system of the next experiment is A549. Description: Cytotoxicity against human A549 cells assessed as inhibition of cell viability by MTT assay. It counts as functional, cell-based. In general terms: Formazan colour is commonly taken as a measure of viable cells.
A further experiment relates to Staphylococcus aureus. The experiment in a line: Antibacterial activity against Staphylococcus aureus CGMCC 1.2465 after 24 hrs. The settings on record: CGMCC 1.2465, 24 h.
Another experiment deals with Candida albicans. Description: Antifungal activity against Candida albicans CGMCC 2.2086 after 24 hrs. It counts as functional, organism-based. Particulars: CGMCC 2.2086, 24 h.

Bounds are passed on as bounds.

The IC50 is the concentration that gives 50% inhibition. Consider `CC[C@@H](C)C[C@@H](C)/C=C(C)/C=C/C=C/C(=O)c1c(O)c([C@]23CC[C@H](CC2)O3)cn(O)c1=O` [MILITARINONE F], for which the IC50 is greater than 150 µM with Streptococcus pneumoniae; greater than 120 µM in the experiment on A549 (Homo sapiens, A549); greater than 120 µM in the experiment with A549 (a549); greater than 150 µM in the experiment on Staphylococcus aureus.
`C[C@@H]1[C@H](O)[C@@H](C)/C=C/C=C/C=C/C=C/C=C/C=C/C=C/[C@H](O[C@@H]2O[C@H](C)[C@@H](O)[C@H](N)[C@@H]2O)C[C@@H]2O[C@](O)(C[C@@H](O)C[C@@H](O)[C@H](O)CC[C@@H](O)C[C@@H](O)CC(=O)O[C@H]1C)C[C@H](O)[C@H]2C(=O)O` [AMPHOTERICIN B] yielded an IC50 in the experiment on Candida albicans of 0.72 µM.
For the compound `CC[C@@H](C)C[C@@H](C)/C=C(C)/C=C/C=C/C(=O)c1c(O)c([C@]2(O)CC[C@@H](O)CC2)cn(O)c1=O` [MILITARINONE A], the IC50 with Candida albicans was greater than 150 µM; with Streptococcus pneumoniae it was greater than 150 µM; in the experiment with A549 (Homo sapiens, A549), 1.75 µM; with Staphylococcus aureus it was greater than 150 µM.
For the compound `C/C(=N\Nc1ccccc1C(=O)O)C(=O)NCC(=O)O` [FARYLHYDRAZONE A], the 50% inhibitory concentration (IC50) in the experiment with Streptococcus pneumoniae is greater than 150 µM; with A549 (Homo sapiens, A549) it was greater than 120 µM; with A549 (a549), greater than 120 µM; in the experiment on Staphylococcus aureus, greater than 150 µM.
For `CC[C@@H](C)C[C@@H](C)/C=C(C)/C=C/C=C/C(=O)c1c(O)c(-c2ccc(O)cc2)c[nH]c1=O` [MILITARINONE B], the IC50 is 43.4 µM in the experiment on Candida albicans; 2.6 µM in the experiment on Streptococcus pneumoniae; greater than 120 µM in the experiment with A549 (Homo sapiens, A549); 2.11 µM with Staphylococcus aureus.
With `CC[C@@H](C)C[C@@H](C)/C=C(C)/C=C/C=C/C(=O)c1c(O)c(C2=CC[C@@H](O)CC2)cn(O)c1=O` [MILITARINONE E], the IC50 in the experiment with Candida albicans is greater than 150 µM; with Streptococcus pneumoniae, greater than 150 µM; with A549 (Homo sapiens, A549), 1.59 µM; in the experiment on Staphylococcus aureus, greater than 150 µM.
Take `O=c1[nH]c(Cc2ccc(O)cc2)nc2ccccc12`: the IC50 in the experiment on Streptococcus pneumoniae was greater than 150 µM; in the experiment on A549 (Homo sapiens, A549), greater than 120 µM; in the experiment on A549 (a549) it was greater than 120 µM; in the experiment on Staphylococcus aureus, greater than 150 µM.
Take `CC1(C)S[C@@H]2[C@H](NC(=O)[C@H](N)c3ccccc3)C(=O)N2[C@H]1C(=O)O` [AMPICILLIN]: the IC50 in the experiment on Streptococcus pneumoniae came out at 1.08 µM; with Staphylococcus aureus it was 0.06 µM.
On to `C/C(=N\Nc1ccccc1C(=O)O)C(=O)O` [FARYLHYDRAZONE B], for which the IC50 with Streptococcus pneumoniae is greater than 150 µM; with A549 (Homo sapiens, A549) it was greater than 120 µM; in the experiment on A549 (a549) it was greater than 120 µM; with Staphylococcus aureus, greater than 150 µM.
